In US20240285773A1, “METHODS OF TREATING MYELODYSPLASTIC SYNDROME AND MONITORING THE TREATMENT” (Geron Corporation, priority 2023, published 2024):
[nps] = N3'→P5' thiophosphoramidate linkage; {Palm} = palmitoyl lipid

How the values were obtained:
SF3B1 = experiment: Gene mutation analysis (NGS): SF3B1 VAF and clinical response; format: in vivo, human
From the text: VAF for the target genes can be determined and/or measured using any convenient methods. In one such method, whole blood collected in an EDTA tube is used to perform Next Generation Sequencing (NGS), for example, using LeukoVantage®. NGS using any other sequencing platform can be used, for example, nanopore sequencing, paired-end sequencing, Ion Torrent sequencing, and single molecule real time (SMRT) sequencing. An MDS gene panel can be used. For example, a gene panel containing one or more of SF3B1, TET2, DNMT3A and ASXL1 can be used. In a specific embodiment, a gene panel that includes the following 36 genes was used: ASXL1, ATM, BCOR, CBL, CEBPA, CSF3R, CUX1, DNMT3A, ETNK1, ETV6, EZH2, FLT3, GATA2, IDH1, IDH2, IKZF1, JAK2, KRAS, NF1, NPM1, NRAS, PHF6, PTEN, PTPN11, RUNX1, SETBP1, SF3B1, SRSF2, STAG2, STAT3, STK11, TET2, TP53, U2AF1, WT1, ZRSR2. The NGS assay can be performed using DNA bait capture methodology on the NextSeq® (Illumina®) platform. Following DNA extraction from leukocytes, a targeted, amplicon-based NGS method is used to detect mutations. […] The percentage of mutation reads will be reported and can be used to assess the size of the clonal population. VAF is the percentage of sequence reads observed matching a specific DNA variant divided by the overall coverage at that locus. Because NGS provides a near random sample, VAF is thus a surrogate measure of the proportion of DNA molecules in the original specimen carrying the variant.
VAF changes were assessed from blood taken pre- and every 12 weeks post-treatment in patients with greater than or equal to 5% variant allele at baseline and >1 post-baseline assessment. T-tests evaluated group comparison, Fisher's exact test evaluated association, and linear regression evaluated correlation. […] The patients achieving ≥8-weeks, ≥24-weeks, and >1-year TI in the imetelstat group were enriched with patients who had ≥50% reductions in SF3B1 and TET2 VAF compared with placebo (FIG. 10).
Blood samples were collected at baseline and during study visits approximately every 12 weeks. Following DNA extraction from leukocytes, a targeted, amplicon-based next generation sequencing was performed at Quest Diagnostics using DNA bait capture methodology on the NextSeq® (Illumina®) platform and a LeukoVantage® MDS Gene Panel covering 36 MDS-relevant genes. The lower limit of sensitivity is 5% mutated alleles in a mixed population; the percentage of mutation reads is reported and used to assess the size of the clonal population.

patients with LR-MDS = experiment: Patient-reported fatigue (FACIT Fatigue Scale); format: in vivo, human; settings: PRO population
From the text: To measure patient-reported fatigue, data were collected using the validated Functional Assessment of Chronic Illness Therapy (FACIT) Scale and analyzed in all randomized patients with available fatigue data at baseline (PRO population). The FACIT is a 13-item questionnaire measuring fatigue during daily activity. Proportion of sustained, meaningful deterioration/improvement was defined as percentage of pts with ≥3-point decrease/increase on the FACIT Fatigue Scale (0-52) for ≥2 consecutive treatment cycles. Additionally, time-to-deterioration/improvement was estimated by Kaplan-Meier analysis. Sensitivity analyses were performed in the intent-to-treat population and with alternate definitions of meaningful deterioration.
Exploratory End Point Patient-Reported Fatigue: Proportion of sustained meaningful deterioration/improvement was defined as percentage of patients with ≥3-point decrease/increase on the Functional Assessment of Chronic Illness Therapy (FACIT) Fatigue Scale (0-52) for ≥2 consecutive treatment cycles.
Meaningful improvement in FACIT Fatigue: Psychometric supportive evidence for the use of the FACIT Fatigue in the context of LR-MDS confirms the previously published threshold of a 3-point change for meaningful within-patient change for the FACIT Fatigue.

[1] = SF3B1 VAF ≥50% reduction No (N=55)
[2] = SF3B1 VAF ≥50% reduction Yes (N=23)

With “Imetelstat: first-in-class telomerase inhibitor; synthetic lipid-conjugated 13-mer oligonucleotide N3′→P5′-thiophosphoramidate (TAGGGTTAGACAA; all [nps], 5' {Palm}, sugars by position and methylation of C not given here)” the “Maximal reduction in SF3B1 VAF” value (SF3B1; 18 ≥1-year TI responders with mutation data) was −6% to −100%, the “1-Year RBC-TI Yes” value (SF3B1; [1]) was 5.5% and the “8-Week RBC-TI Yes” value (SF3B1; [1]) was 38.2%. The “24-Week RBC-TI Yes” value (SF3B1; [1]) was 23.6%, the “1-Year RBC-TI Yes” value (SF3B1; [2]) was 47.8% and the “8-Week RBC-TI Yes” value (SF3B1; [2]) was 82.6%. For the same substance, the “24-Week RBC-TI Yes” value (SF3B1; [2]) was 69.6%, the “Pearson's r: maximum % reduction in SF3B1 VAF vs maximum change in hemoglobin” value (SF3B1; imetelstat group, n=67) was −0.626 and the “Complete elimination of the SF3B1 VAF, patients” value (SF3B1; ≥1-year TI responders (of 18)) was 7 patients. For the same substance, the “≥50% SF3B1 VAF reduction” value (SF3B1; ≥1-year TI responders (of 18)) was 72.2%, the “≥50% SF3B1 VAF reduction, patients” value (SF3B1; ≥1-year TI responders (of 18)) was 13 patients and the “HR, time to first sustained meaningful improvement in fatigue vs placebo” value (patients with LR-MDS) was 1.34. For the same substance, the “Median time to first sustained, meaningful improvement in fatigue” value (patients with LR-MDS) was 28.3 weeks, the “Patients with any episode of sustained, meaningful deterioration in fatigue” value (patients with LR-MDS; 118 patients) was 43.2% and the “Patients with sustained, meaningful improvement in fatigue” value (patients with LR-MDS; 118 patients) was 50.0%.
